{CholTEG} = cholesterol-triethylene glycol
Tests used:
Assay type in all cases: cell-based
[1] = system: Pseudomonas aeruginosa (MDR-PA, ATCC® BAA-3105™) biofilm; test: Biofilm formation assays (crystal violet and CFU); conditions: TSB, 96 wells, DNAzyme 2.5 μM, 16 hours; for biofilm formation (crystal violet): FIG. 4A; for viable cells within the biofilm (CFU): FIG. 4B
Procedure: FIGS. 4A-B are graphs showing reduction in bacterial density (FIG. 4A) or colony-forming units (FIG. 4B) (vertical axis) in biofilms grown either with or without the indicated DNAzymes (2.5 μM) in 96 wells with tryptic soy broth (TSB) for 16 hours, after which non-adhered cells were removed, and biofilms were washed and stained with 0.1% crystal violet (FIG. 4A) or replating (FIG. 4B). Average and standard mean are depicted by horizontal bars and brackets. Scr is a control scramble DNAzyme (Scr nucleotide sequence is 5′-[…]/3CholTEG/; SEQ ID NO: 44). NT is No Treatment.
Biofilm assays. Bacterial strains were streaked from frozen LB+glycerol stocks onto LB agar plates and incubated for 24 h at 37° C. Single colonies were grown overnight at 37° C. in 3 ml of LB. Cultures were diluted 1:100 in TSB in a 96-well plate, and DNAzymes were added to a final concentration of 2.5 μM. Cultures were incubated at 37° C. without shaking for 16 hours. Non-adherent cells were removed, and biofilms were washed with PBS and either stained with crystal violet (0.1%), or biofilm cells were extracted using mild sonication (2-4 pulses of 5 seconds, amplitude 30%) for CFU determination. CFU was measured using serial dilutions of the bacterial suspensions and spots were plated on LB plates. CFU was determined as above.
To measure the ability of DNAzymes that target a transcript encoding a cell wall biosynthesis enzyme, to affect biofilm formation, bacteria were grown in TSB on plates, under conditions that favor biofilm formation. Representative DNAzymes tested included murG-162, murG-207, and murG-366.

[2] = system: Pseudomonas aeruginosa (MDR-PA, ATCC® BAA-3105™) pre-established biofilm; test: DNAzyme treatment of pre-established biofilms without or with meropenem (CFU, SEM); conditions: DNAzyme 2.5 μM, 8 hours; for effect on meropenem activity against pre-established biofilms: PBS + 10 μM meropenem, FIG. 6B; for reduction of biofilm biomasses: mature 24 h biofilms, without or with meropenem, FIGS. 6A-6B
Procedure: FIGS. 6A-6C: DNAzymes can reduce viability and increase antibiotic sensitivity of cells from pre-established biofilms. Biofilms were grown in TSB in 12 well plates. 24 hours later, the medium was replaced with PBS (FIG. 6A) or with PBS+10 μM meropenem (FIG. 6B) in the presence or absence of the indicated DNAzymes, murG-162 or SCR (scramble control), […]. Following 8 hours, the adherent remaining cells were extracted, and the number of CFU was determined. (FIG. 6C) Biofilms were grown as described for FIG. 6B. The mesh with associated biofilms was imaged with SEM.
The effect of DNAzymes targeting murG on pre-established biofilms was studied by comparing the application of PBS, scrambled DNAzyme control (SCR), or indicated DNAzymes (162-murG, 207-murG, and 366-murG) on mature biofilms without or with the beta-lactam meropenem (FIGS. 6A-6B, respectively).
These findings were confirmed by SEM. Biofilms treated with sub-lethal concentrations of meropenem with control SCR DNAzyme were […] and had more texture. […] FIG. 6C presents an example of these findings, wherein SCR DNAzyme treated samples were compared to biofilms treated with murG162+meropenem.

[3] = system: Pseudomonas aeruginosa (MDR-PA, ATCC® BAA-3105™) biofilm; test: Scanning electron microscopy of biofilms grown with DNAzymes; conditions: stainless steel mesh, TSB, DNAzyme 1.25 μM twice, 48 hours; FIG. 5C
Procedure: FIGS. 5A-5C: Biofilm macrostructure and morphology of single bacterial cells are affected by DNAzymes targeting murG. Biofilms were grown on top of dense stainless steel mesh in TSB in 12 well plates with or without indicated DNAzymes (1.25 μM). 24 hours afterwards, an additional dose of DNAzymes was added to treated samples. Following 48 hours of overall inoculation, biofilms were fixated and dehydrated. The mesh with associated biofilms was imaged with scanning electron microscopy (SEM). The results are of a representative field of 3 independent repeats. (FIG. 5A). NT, scr, and murG162 as above) (FIG. 5B) Enlargements of representative zones, enabling detection of single-cell morphologies. (FIG. 5C) Overall measurements of the maximal thickness of dehydrated biofilms. (NT, scr, and murG162 as above)
To determine the effects of the representative DNAzymes on macro- and microstructure of treated biofilms, 3D structures of treated and untreated biofilms were examined using scanning electron microscopy (SEM).
To study the effects of DNAzyme treatment on biofilm structure, 3D topographies of the biofilms were generated to compare multiple areas of the biofilm. The biofilms were dehydrated, resulting in a uniform loss of volume percentage.

[4] = system: Pseudomonas aeruginosa strain ATCC® BAA-3105™; test: Intracellular DNAzyme quantification in bacteria grown in media (qPCR / flow cytometry); conditions: LB + 32 μg/ml meropenem, 1.25 μM DNAzyme, 4 hours
Procedure: FIGS. 2A-2D. Uptake of fluorescent DNAzyme in media mimicking in vivo conditions, in the presence of subtoxic concentrations of meropenem as judged by flow cytometry. […] FIG. 2B is a graph showing the copy number of fluorescent murG-207 DNAzymes (Dz) per bacterium, as measured by flow cytometry. FIG. 2C is a graph showing uptake of fluorescent murG-207 DNAzyme in bacterial cells in a biofilm. Bacteria were grown under conditions favoring biofilm formation in TSB for 24 hours. Biofilm cells were separated from non-adhered cells, incubated with fluorescent murG-207 DNAzyme for 2 hours, and analyzed by flow cytometry. FIG. 2D is a graph showing uptake of DNAzymes in bacterial colonizing lung tissue samples (mouse lungs from naïve healthy mice). MDR-PA were grown with lung samples in DMEM with meropenem for 24 hours. […] In the histograms shown in FIGS. 2A, 2C, and 2D, arrows indicate which lines represent the basal fluorescence levels of the bacteria, and fluorescence of murG-207 DNAzyme with 3′cholesterol-TEG modification.
Flow cytometry. […] Data was analyzed using Kaluza Analysis 2.1 software using a C6 import module.
Intracellular DNAzyme quantification from bacterial cells. […] For intracellular extraction of the DNAzymes, cells were incubated for 10 minutes at 95° C., and supernatants were collected for quantification of intracellular DNAzymes. […]

Row | Substance | biofilm formation (crystal violet) [1] | viable cells within the biofilm (CFU) [1] | effect on meropenem activity against pre-established biofilms [2] | reduction of biofilm biomasses [2] [log] | occurrence of areas thicker than 10 μm in dehydrated biofilms [3] | average copy number of DNAzymes per cell [4]
1 | 5′-GATCAGGTG ggctagctacaacga AACGGCAGG-Chol-TEG-3′ (DNA GATCAGGTGGGCTAGCTACAACGAAACGGCAGG; DNA, 3' {CholTEG}, backbone and methylation of C not given here) [murG-162] | biofilm inhibition | significant reduction of viable cells | potentiated the effect of meropenem | ~1 | significantly reduced | –
2 | 5′-ACCACAATACCGAGATCGGTCGTGTCGGCATGA/3CholTEG/ (DNA, 3' {CholTEG}, backbone and methylation of C not given here) [Scr, control scramble DNAzyme, reference compound] | did not show inhibition of biofilm formation | did not show inhibition of biofilm formation or a reduction of viable cells | – | – | composed of areas thicker than 10 μm, areas of about 10 μm, and significantly thinner areas | –
3 | 5′-GGCGTTCTG ggctagctacaacga TCGTGGATC-Chol-TEG-3′ (DNA GGCGTTCTGGGCTAGCTACAACGATCGTGGATC; DNA, 3' {CholTEG}, backbone and methylation of C not given here) [murG-366, 10-23 DNAzyme targeting murG RNA transcript, cleavage site nt 366, 3′ cholesterol-TEG] | biofilm inhibition | significant reduction of viable cells | potentiated the effect of meropenem | ~1 | – | –
4 | 5′-CTTGACCAG ggctagctacaacga GACTTCAGG-Chol-TEG-3′ (DNA CTTGACCAGGGCTAGCTACAACGAGACTTCAGG; DNA, 3' {CholTEG}, backbone and methylation of C not given here) [murG-207, 10-23 DNAzyme targeting murG RNA transcript, cleavage site nt 207, 3′ cholesterol-TEG] | biofilm inhibition | significant reduction of viable cells | potentiated the effect of meropenem | ~1 | – | over 10,000 DNAzymes per cell
